Data published in patent US20230095103A1, “COMPOSITIONS AND METHODS CONTAINING REDUCED NICOTINAMIDE RIBOSIDE FOR PREVENTION AND TREATMENT OF LUNG DISEASES AND CONDITIONS” (SOCIETE DES PRODUITS NESTLE S.A., priority 2020, published 2023).
Structures can show the parent of a compound that is named as a salt. Where two headings read alike, the source gives them in different places.

Columns and labels:
adenosine kinase (AK) = target: T1, adenosine kinase (AK) (Mus musculus, UniProt P55264); assay: NRH-induced NAD+ synthesis with adenosine kinase inhibitors in AML12 cells; format: cell-based; details: for effect of AK inhibitor on the action of NRH (NAD+ synthesis): inhibitor given before NRH treatment
T1 construct: endogenous in cells; host or cells: AML12 cells
Protocol: AML12 cells were treated with an adenosine kinase inhibitor (5-IT; […]) for 1 hour prior to NRH treatment at the doses indicated. Then, 1 hour later, acidic extracts were obtained to measure NAD^+ levels. All values in the figure are expressed as mean+/−SEM of 3 independent experiments. * indicates statistical difference at p<0.05 vs. the respective vehicle treated group.

[1] = Stability of NRH or NR spiked in isolated mouse plasma; format: in vitro ADME
Protocol: (§1) NR degradation to NAM has been proposed as a limitation for its pharmacological efficacy. To evaluate whether NRH was also susceptible to degradation to NAM, we spiked NRH or NR in isolated mouse plasma. […] We also tested the stability of NRH in other matrixes. […] Finally, we also certified NRH stability in water (pH=7, at room temperature) for 48 h.

[2] = Intraperitoneal injection of NR or NRH in mice: tissue NAD+ and circulating metabolites; format: in vivo; details: for NAD+ levels in liver, muscle and kidney: mice, IP 500 mg/kg, after 1 h
Protocol: The above results prompted us to test whether NRH could act as an effective NAD+ precursor in vivo. For this, we first intraperitoneally (IP) injected mice with either NR or NRH (500 mg/kg). […] Importantly, NRH was detectable in circulation after IP injection.

[3] = Stability in FBS supplemented media; format: in vitro ADME
Protocol: as §1

[4] = tested on: intracellular NRH, NMNH, NR and NMN; assay: Intracellular NAD-related metabolites after NRH or NR treatment; format: cell-based; details: for intracellular detection of NRH and NMNH: 5 minutes after treatment
Excerpt: (§2) Levels of NRH and other NAD-related metabolites in biological samples were obtained by using a cold liquid-liquid extraction using a mixture of methanol:water:chloroform in 5:3:5 (v/v), from which the polar phase was recovered for hydrophilic interaction ultra-high performance liquid chromatography mass spectrometry (UHPLC-MS) analysis. The UHPLC consisted of a binary pump, a cooled autosampler, and a column oven (DIONEX Ultimate 3000 UHPLC+ Focused, Thermo Scientific), connected to a triple quadrupole spectrometer (TSQ Vantage, Thermo Scientific) equipped with a heated electrospray ionisation (H-ESI) source. Of each sample, 2 μL were injected into the analytical column (2.1 mm×150 mm, 5 μm pore size, 200 Å HILICON iHILIC®-Fusion(P)), guarded by a pre-column (2.1 mm×20 mm, 200 Å HILICON iHILIC®-Fusion(P) Guard Kit) operating at 35° C. The mobile phase (10 mM ammonium acetate at pH 9, A, and acetonitrile, B) was pumped at 0.25 mL/min flow rate over a linear gradient of decreasing organic solvent (0.5-16 min, 90-25% B), followed by re-equilibration for a total run time of 30 min. The MS operated in positive mode at 3500 V with multiple reaction monitoring (MRM). The software Xcalibur v4.1.31.9 (Thermo Scientific) was used for instrument control, data acquisition and processing. Retention time and mass detection was confirmed by authentic standards.
A path in which NRH would be converted to NMNH, then to NADH and this would be finally oxidized to NAD+.

NRK1 = assay: NAD+ levels in primary hepatocytes from control or NRK1 knockout mice; details: after 1 hour of treatment
[5] = format: in vivo, mice
Protocol: 8 week-old C57BI/6NTac mice were orally gavaged with either saline (as vehicle), NR (500 mg/kg) or NRH (500 mg/kg). After 1 hour, liver, skeletal muscle and kidney NAD+ levels were evaluated. All results are expressed as mean+/−SEM of n=5 mice per group. * indicates statistical difference at p<0.05 vs. vs. saline-treated mice. # indicates statistical difference at p<0.05 vs. NR treated mice.
Oral administration of NRH led to very similar results to those observed after IP administration. […] NRH was detectable in plasma 1 h after oral administration. In contrast, NR levels were undetectable at 1 h after NR administration.

[6] = design: species or system mice; details: mouse, in vivo, 250 mg/kg
Protocol: 8 week-old C57BI/6NTac mice were orally gavaged with either saline (as vehicle), and NRH (250 mg/kg). After 2 hours, liver, skeletal muscle and kidney NRH levels were evaluated. All results are expressed as mean+/−SEM of n=4 mice per group, as areas under the signal by LC-MS analysis, corrected by total protein amount of tissue.

[7] = tested on: equilibrative nucleoside transporters (ENTs); assay: NRH-induced NAD+ synthesis under ENT blockade with NBTI; format: cell-based; details: in the presence of NBTI
Excerpt: In order to understand the exact path by which NRH synthesizes NAD+, we initially evaluated whether NRH, could be transported into the cell by equilibrative nucleoside transporters (ENTs).

3T3 fibroblasts = assay: NAD+ levels in 3T3 fibroblasts after NRH treatment; format: cell-based
Protocol: (§3) The ability of NRH to potently increase NAD+ was tested as well in other cell type models.

C2C12 myotubes = assay: NAD+ levels in C2C12 myotubes after NRH treatment; format: cell-based
Protocol: as §3

NAMPT = target: T2, NAMPT (Mus musculus, UniProt Q99KQ4); assay: NRH action in the presence of the NAMPT inhibitor FK866; format: cell-based; details: with FK866, a NAMPT inhibitor
T2 construct: endogenous in cells

[8] = format: physicochemical
Protocol: as §1

INS1-cells = assay: NAD+ levels in INS1-cells after NRH treatment; format: cell-based
Protocol: as §3

[9] = tested on: Salmonella enterica serovar Typhimurium; assay: Anti-bacterial response of monocyte-derived macrophages against Salmonella (CFU counts); format: cell-based; details: 0.01 mM NRH for 42 h prior to infection, MOI 10
Protocol: Monocyte-derived macrophages were treated with 0.01 mM NRH for 42 h prior to infection with Salmonella enterica serovar Typhimurium for 1 h using a multiplicity of infection of 10. Following infection, macrophages were treated with gentamicin for 2 h before cell lysis. Values show absolute colony forming unit (CFU) counts with each dot representing one donor and each line representing paired samples. Graphs show pooled data of 2 independent experiments with 2-3 donors/experiment.

AML12 hepatocytes = assay: Intracellular NAD+ levels in AML12 hepatocytes after NRH or NR treatment (dose-response, time course); format: cell-based
Excerpt: as §2
Even at such relatively low dose, NRH achieved similar increases in intracellular NAD+ levels to those reached with NR at 50-fold higher concentrations. NRH achieved maximal effects on NAD+ synthesis around the millimolar range, managing to increase intracellular NAD+ levels by more than 10-fold.
NRH actions were also extremely fast (FIG. 3), as significant increases in NAD+ levels were observed within 5 minutes after NRH treatment.

NMNAT = assay: NRH-induced NAD+ synthesis with the NMNAT inhibitor gallotannin; format: cell-based
Excerpt: As a follow-up step, NMNAT enzymes could catalyze the transition from NMNH to NADH.

[10] = isolated mouse plasma, 2 h of incubation

T1 sequence (P55264 whole entry): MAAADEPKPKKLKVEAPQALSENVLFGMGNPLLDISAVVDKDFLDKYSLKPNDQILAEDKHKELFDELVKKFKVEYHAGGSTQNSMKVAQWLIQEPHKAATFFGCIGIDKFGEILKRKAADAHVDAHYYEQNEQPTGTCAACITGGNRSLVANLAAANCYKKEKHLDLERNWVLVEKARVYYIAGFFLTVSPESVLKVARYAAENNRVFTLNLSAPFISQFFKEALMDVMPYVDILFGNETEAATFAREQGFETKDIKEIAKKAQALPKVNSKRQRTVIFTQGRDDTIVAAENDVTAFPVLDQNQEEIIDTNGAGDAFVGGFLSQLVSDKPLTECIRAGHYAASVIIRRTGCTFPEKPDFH
T2 sequence (Q99KQ4 whole entry): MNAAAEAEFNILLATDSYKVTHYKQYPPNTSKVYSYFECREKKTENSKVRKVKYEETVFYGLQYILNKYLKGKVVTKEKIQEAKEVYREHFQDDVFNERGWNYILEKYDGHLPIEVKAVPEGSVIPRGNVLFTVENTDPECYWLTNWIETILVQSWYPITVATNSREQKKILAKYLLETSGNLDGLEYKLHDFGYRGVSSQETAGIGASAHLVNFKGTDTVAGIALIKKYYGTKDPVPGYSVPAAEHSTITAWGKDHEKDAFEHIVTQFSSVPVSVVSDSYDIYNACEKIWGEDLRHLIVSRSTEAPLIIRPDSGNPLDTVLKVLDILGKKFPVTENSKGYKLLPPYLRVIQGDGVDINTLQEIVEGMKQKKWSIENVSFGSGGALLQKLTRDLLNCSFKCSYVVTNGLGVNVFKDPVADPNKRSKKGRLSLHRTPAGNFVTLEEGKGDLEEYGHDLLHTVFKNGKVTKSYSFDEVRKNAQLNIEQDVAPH

## Nc1ncnc2c1c(I)cn2[C@@H]1O[C@H](CO)[C@@H](O)[C@H]1O [5-IT, 5-iodotubercidin]
Adenosine kinase (AK); 5-IT treatment
  formation of NR and NMN after NRH treatment: prevented
Adenosine kinase (AK)
  effect of AK inhibitor on the action of NRH (NAD+ synthesis): fully ablated the action of NRH

## Nc1ncnc2nc(-c3ccc(N4CCOCC4)nc3)cc(-c3cccc(Br)c3)c12 [ABT-702]
Adenosine kinase (AK)
  effect of AK inhibitor on the action of NRH (NAD+ synthesis): confirmed

## NC(=O)c1ccc[n+]([C@@H]2O[C@H](CO)[C@@H](O)[C@H]2O)c1 [NR, 1-b-D-ribofuranosyl-3-pyridinecarboxamide salt, reference compound]
[1]; [10]
  generation of NAM in plasma: increase in NAM
  levels of the compound in plasma: decayed
[2]
  NAD+ levels in liver, muscle and kidney: increased
[3]; FBS supplemented media
  degradation to NAM: occurs
[4]
  intracellular detection of NRH and NMNH: not
NRK1
  NAD+ levels in NRK1 KO derived primary hepatocytes: failed to increase NAD+ levels
[5]; C57BI/6NTac, mouse, in vivo, po, 1 h
  circulating NAM after NR treatment relative to NRH treatment: −4 fold

## NC(=O)C1=CN([C@@H]2O[C@H](CO)[C@@H](O)[C@H]2O)C=CC1 [NRH, dihydro-1-beta-D-ribofuranosyl-3-pyridinecarboxamide]
[6]
  NRH in liver, kidney and muscle: found intact, in high levels
[7]
  capacity as extracellular NAD+ precursor under ENT blockade: largely lost its capacity as an extracellular NAD+ precursor
3T3 fibroblasts
  NAD+ levels: highly elevated NAD+ levels
C2C12 myotubes
  NAD+ levels: highly elevated NAD+ levels
NAMPT
  dependence of NRH action on NAMPT: NAMPT-independent
[1]
  NR production in plasma: did not lead to NR production
[2]
  NAD+ levels in liver, muscle and kidney: increased
[2]; mouse, in vivo, ip
  NR in circulation after NRH treatment: much higher levels than those detected after NR injection itself
  NRH in circulation: detectable
[2]; mouse, in vivo, ip, 500 mg/kg
  NAM levels in circulation: only a very mild increase
[8]
  stability in water: 48 h
INS1-cells
  NAD+ levels: highly elevated NAD+ levels
[3]
  degradation to NAM: did not degrade to NAM
Adenosine kinase (AK); upon inhibition of AK, metabolomic analyses
  generation of NMNH, NADH and NAD+ from NRH: fully blunted
[4]
  intracellular detection of NRH and NMNH: could be detected
[4]; after NRH treatment, compared with NR
  increase in intracellular NR and NMN: greater than that triggered by NR itself
[9]
  anti-bacterial macrophage response (CFU counts): able to augment anti-bacterial macrophage response
[5]; mice, oral administration, compared with NR
  effect on hepatic NAD+ levels: more potent effect on hepatic NAD+ levels than NR
AML12 hepatocytes; AML12 hepatocytes, FIG. 3
  time to significant increase in NAD+ levels after treatment: ≤ 5 min
AML12 hepatocytes; AML12 hepatocytes, around the millimolar range
  increase of intracellular NAD+ levels at maximal effect: more than 10 fold
AML12 hepatocytes; AML12 hepatocytes, compared with NR
  ability to increase intracellular NAD+: superior to that of NR
AML12 hepatocytes; AML12 hepatocytes, dose-response, FIG. 2
  concentration at which NAD+ levels are significantly increased: 10 µM
AML12 hepatocytes; NRH at 10 μM
  NR concentration needed for similar increase in intracellular NAD+, relative to NRH: 50 fold

## O=C(OC[C@H]1O[C@@H](OC(=O)c2cc(O)c(O)c(OC(=O)c3cc(O)c(O)c(O)c3)c2)[C@H](OC(=O)c2cc(O)c(O)c(OC(=O)c3cc(O)c(O)c(O)c3)c2)[C@@H](OC(=O)c2cc(O)c(O)c(OC(=O)c3cc(O)c(O)c(O)c3)c2)[C@@H]1OC(=O)c1cc(O)c(O)c(OC(=O)c2cc(O)c(O)c(O)c2)c1)c1cc(O)c(O)c(OC(=O)c2cc(O)c(O)c(O)c2)c1 [gallotannin]
NMNAT
  effect of NMNAT inhibitor on NAD+ synthesis after NRH treatment: largely compromised NAD+ synthesis after NRH treatment
NMNAT; NRH at maximal doses (0.5 mM)
  NRH action after gallotannin treatment: part of the NRH action remained
NMNAT; NRH at submaximal doses
  NRH action after gallotannin treatment: totally blocked
